{"source": "patent US8293784B2", "about": "“α-amino acid derivatives for improving solubility” (Merck Patent GmbH, priority 2007, dated 2012)", "key": {"[1]": {"experiment": "Visual assessment of the increase in solubility due to ectoine (clear vs cloudy solution)", "assay_type": "physicochemical", "settings": "active compound incorporated at 1% (tiliroside) or 1.5% (5,7-dihydroxy-2-methylchromone)", "description": "Firstly, 4% ectoine solutions are prepared in water and in a water/ethanol mixture (3:1). The active compound to be dissolved is subsequently incorporated into the two ectoine solutions in an amount of 1% and 1.5% respectively. The respective ectoine-free batches serve as comparison."}, "[2]": {"experiment": "Solubility of PBSA in aqueous solubiliser solutions, dissolved fraction determined by HPLC", "assay_type": "physicochemical", "settings": "thermodynamic from solid, filtered", "description": "Firstly, 4% aqueous solutions of ectoine, creatinine and pyrrolidonecarboxylic acid are prepared. The active compound PBSA is subsequently dispersed in the solution in excess. The pH of the suspension is adjusted to 4.6. Undissolved active compound is filtered off after stirring for 1 hour. The dissolved active-compound fraction is determined by high-performance liquid chromatography. The experiment without solubiliser serves as comparison. In the case of dissolution of PBSA in aqueous creatinine solution, the solubility is additionally determined at pH 5.7, i.e. in this case the pH is not restored to 4.6."}, "[3]": {"settings": "4% of ectoine in ethanol/water 3:1"}, "[4]": {"settings": "Ethanol/water 3:1, no ectoine (comparison)"}}, "note": "Like-named read-outs stand apart in the source and are kept apart here."}
{"smiles": "Cc1cc(=O)c2c(O)cc(O)cc2o1", "note": "[5,7-Dihydroxy-2-methyl-chromone, 5,7-dihydroxy-2-methylchromone]", "values": [{"measurement": "Appearance of solution (visual solubility assessment)", "setting": "[1]; [3]", "value": "clear solution"}, {"measurement": "Appearance of solution (visual solubility assessment)", "setting": "[1]; [4]", "value": "cloudy solution"}]}
{"smiles": "O=S(=O)(O)c1ccc2[nH]c(-c3ccccc3)nc2c1", "note": "[PBSA, 2-phenylbenzimidazole-5-sulfonic acid]", "values": [{"measurement": "solubility at 1 h", "setting": "[2]; 4% aqueous creatinine solution, pH 4.6, aqueous with cosolvent or surfactant or cyclodextrin, pH of the dispersion set to 4.6, stirred 1 hour, read-out: Solubility of PBSA in water comprising 4% of creatinine", "value": 940, "unit": "µg/mL"}, {"measurement": "solubility at 1 h", "setting": "[2]; 4% aqueous creatinine solution, pH 5.7, aqueous with cosolvent or surfactant or cyclodextrin, pH of the dispersion 5.7 (pH not restored to 4.6), stirred 1 hour, read-out: Solubility of PBSA in water comprising 4% of creatinine", "value": 8500, "unit": "µg/mL"}, {"measurement": "solubility at 1 h", "setting": "[2]; 4% aqueous ectoine solution, pH 4.6, aqueous with cosolvent or surfactant or cyclodextrin, pH of the dispersion set to 4.6, stirred 1 hour, read-out: Solubility of PBSA in water comprising 4% of ectoine", "value": 600, "unit": "µg/mL"}, {"measurement": "solubility at 1 h", "setting": "[2]; 4% aqueous pyrrolidonecarboxylic acid solution, pH 4.6, aqueous with cosolvent or surfactant or cyclodextrin, pH of the dispersion set to 4.6, stirred 1 hour, read-out: Solubility of PBSA in water comprising 4% of pyrrolidonecarboxylic acid", "value": 340, "unit": "µg/mL"}, {"measurement": "solubility at 1 h", "setting": "[2]; water without solubiliser, pH 4.6, aqueous buffer, no solubiliser, pH of the dispersion set to 4.6, stirred 1 hour, read-out: Solubility of PBSA in water", "value": 340, "unit": "µg/mL"}]}
{"smiles": "O=C(/C=C/c1ccc(O)cc1)OC[C@H]1O[C@@H](Oc2c(-c3ccc(O)cc3)oc3cc(O)cc(O)c3c2=O)[C@H](O)[C@@H](O)[C@@H]1O", "note": "[Tiliroside, tiliroside]", "values": [{"measurement": "Appearance of solution (visual solubility assessment)", "setting": "[1]; [3]", "value": "clear solution"}, {"measurement": "Appearance of solution (visual solubility assessment)", "setting": "[1]; [4]", "value": "cloudy solution"}]}
